Data published in patent US7807176B2, “Polypeptide promoting vascular endothelial cell growth” (Genomidea, Inc., priority 2004, dated 2010).

Legend:
tube formation = assay: Tube formation, Kurabo Angiogenesis kit with CD31 staining and image quantification; assay type: cell-based, human; details: for Area (% increase): Example 5, Table 4; for Length (% increase): Example 5, Table 5; for tube Area % Increase / tube Length % Increase: Table 2
Description: Using a Kurabo Angiogenesis kit (KZ-1000, Kurabo Industries Ltd.), tube formation was examined. A blank, vascular endothelial growth factor-A protein (VEGF-A), pVEGF plasmid (plasmid containing a gene encoding vascular endothelial growth factor), and pSPORT1 (a plasmid not containing a gene encoding vascular endothelial growth factor) were used as controls. […]
Culture was carried out at 37° C. in a 5% CO2 incubator. The medium was exchanged on the 4th, 7th and 9th days of culture with a fresh medium containing the same additives.
CD31 (PECAM-1) staining primary antibody (mouse anti-human CD31 antibody) was diluted 4,000-fold with a blocking solution (Dulbecco's phosphate buffer solution (PBS(−)) containing 1% BSA). 0.5 ml of this primary antibody solution was added to each well and incubated for 60 minutes at 37° C. After incubation was finished, each well was washed 3 times with 1 ml blocking solution.
Then, 0.5 ml of a secondary antibody (goat anti-mouse IgG/alkali phosphatase conjugate) solution, diluted 500-fold with the blocking solution, was added to each well and incubated for 60 minutes at 37° C., and each well was washed 3 times with 1 ml distilled water. Separately, 2 tablets of BCIP/NBT were dissolved in 20 ml distilled water and filtered through a filter with a pore size of 0.2 μm, to prepare a substrate solution. 0.5 ml of the prepared BCIP/NBT substrate solution was added to each well and incubated at 37° C. until the tube turned deep violet (usually in 5 to 10 minutes). After incubation was finished, each well was washed 3 times with 1 ml distilled water, followed by removing the washing solution using suction, and the plate was left to air-dry. After drying, each well was observed under a microscope.
Each well was observed under a 40× magnification microscope and a photograph of each well was taken. An enlarged photograph with the scale of 1 mm magnified 40-fold was taken (FIG. 5).
Each of the resulting images was quantified with angiogenesis quantification software (KSW-5000U, Kurabo Industries Ltd.) according to the following method. The area (left in FIG. 6) and length (right in FIG. 6) of tubes formed in each visual field were measured on the scale by computer analysis with various indicators. […]

HAEC = assay: MTS assay of endothelial cell proliferation with added peptide; assay type: cell-based, human; details: MTS, Table 3
Description: F2 peptide was synthesized and then contacted in a varying amount with HAEC, and the ability thereof to proliferate the cells was examined by MTS assay. The MTS assay is a modification of the MTT assay, and is a method of measuring living cells based on a reaction of reducing tetrazolium salt (MTS) by living cells in culture, into a colored product formazan. Specifically, this assay is carried out as follows: • HAEC was inoculated onto a 96-well plate at a density of 750 cells/well. • 2 μl/well of each sample was added to 100 μl/well endothelial cell medium (1% FBS, without EGF). 2 μl/well was added every day (until Day 6) (the medium was not exchanged). • 20 μl measurement solution (Cell Titer 96 AQueous One Solution Cell Proliferation Assay (Promega)) was added to each well and mixed with 100 μl of the endothelial cell medium, and the old medium was removed by suction. A mixed suspension of the measurement solution and the cells was put in a volume of 120 μl/well and then incubated for 1 to 5 hours in a CO2 incubator. • The absorbance at 490 nm was measured with a plate reader.
The sample group (8 wells each) is as follows: • NC: Only EBM medium (endothelial cell medium) containing 1% FBS. The other samples were cultured by adding various peptides to this medium containing serum. • VEGF-A: Recombinant VEGF-A (KURABO) was added at a final concentration of 10 ng/ml. • F2-1: F2 peptide was added at a final concentration of 1 ng/ml. • F2-10: F2 peptide was added at a final concentration of 10 ng/ml. • F2-100: F2 peptide was added at a final concentration of 100 ng/ml. • F2-1000: F2 peptide was added at a final concentration of 1000 ng/ml.

[1] = test system: phosphatidyl inositol-3-kinase/Akt (PI3K/Akt); details: according to a previous study; cited from earlier work
[2] = test system: ERK (extracellular signal-related kinase); details: according to a previous study; cited from earlier work
HEAC endothelial cells = assay: Endothelial cell migration, modified Boyden chamber; assay type: cell-based, human
Description: A polyvinyl pyrrolidone (PVP)-free polycarbonate membrane having […] (Neuro Probe Inc., Gaithersburg, Md.) was coated overnight with 0.1% gelatin and then washed with phosphate buffered saline to remove an excess of the gelatin coating. Then, 28 μl growth factor-free EBM2 medium supplemented with 1% FBS was arranged in a lower chamber, and the membrane was arranged on the lower chamber. […] The Boyden chamber was incubated at 37° C. for 4 hours. After incubation, the membrane was removed and the cells on the upper side of the membrane were removed. The cells on the lower side of the membrane were stained with Diff-Quick (Sysmex, Hyogo Pref., JP). The cells in each of randomly selected 8 visual fields (×100) were counted.

c-fos promoter = c-fos promoter assay (c-fos-Luci luciferase); assay type: cell-based, bovine
Description: To further confirm the proliferation ability, an assay using a promoter of proto-oncogene c-fos, which is activated in the earliest stage of cell proliferation, was carried out. The gene c-fos-Luci having luciferase ligated under this promoter, and a candidate gene, were introduced in a weight ratio of 1:1 by lipofection into bovine vascular endothelial cells, and after 24 to 48 hours, the luciferase activity was measured.

VEGF promoter = VEGF promoter assay (luciferase gene ligated to VEGF promoter); assay type: cell-based, bovine; details: FIG. 3 right graph
[3] = test system: human vascular smooth muscle cell (VSMC); assay: Cell proliferation after gene transfer into VSMC; assay type: cell-based; details: FIG. 4
[4] = test system: human aortic endothelial cells (HAEC); assay: Cell proliferation assay after gene transfer into HAEC (Cell Titer 96); assay type: cell-based; details: HAEC as host cell; FIG. 4
Description: A human heart cDNA library (a plasmid having human heart-derived cDNA ligated to plasmid pSPORT having a CMV promoter; GIBCO BRL) was introduced into E. coli DH12S, and the plasmid prepared from the E. coli. 200 μg of the plasmid was encapsulated in 10000 HAU of the HVJ-E gene-transfer vector (the gene-transfer vector, 3×10^9 particles, prepared in Example 2 in the present invention). As host cells, human aortic endothelial cells HEAC (Sanko Junyaku Co., Ltd.), about 5000 cells, were added together with medium to each well of a 96-well microtiter plate, then cultured overnight and used. 1/100 of the HVJ-E was added to each well containing the host cells, and then left at 37° C. for 30 minutes, followed by exchanging the medium. […]
After2 weeks, a cell proliferation assay was carried out. Using Cell Titer 96 (Promega) as a reagent, the oxidoreduction of mitochondria was measured as a change in the color of the reagent and used as an indicator of cell growth. […]
Each of nine clones having the insert was encapsulated respectively in HVJ-E and subjected to a second screening, and as a result, a gene showing a high proliferation activity was obtained. […] The gene c-fos-Luci having luciferase ligated under this promoter, and a candidate gene, were introduced in a weight ratio of 1:1 by lipofection into bovine vascular endothelial cells, and after 24 to 48 hours, the luciferase activity was measured. […]

LL-37 peptide: peptide having antimicrobial activity, angiogenesis activity and artery-forming activity; rich in arginine, α-helix structure [reference compound]
Area (% increase) (tube formation; 1 μg/ml): 70.1% | Length (% increase) (tube formation; 1 μg/ml): 60.9% | Area (% increase) (tube formation; 10 μg/ml): 43% | Length (% increase) (tube formation; 10 μg/ml): 28% | endothelial proliferation Increase [times] (HAEC; 100 ng/ml): 1.279 times | endothelial proliferation Increase [times] (HAEC; 1 μg/ml): 1.361 times | effect on PI3K/Akt activity [1]: increased rapidly | effect on ERK activity [2]: increased rapidly

RSLEGTDRFPFVRLKNSRKLEFKDIKGIKR (CONTROL PEPTIDE) [reference compound]
tube Area % Increase (tube formation; 1 μg/ml): −12% | tube Length % Increase (tube formation; 1 μg/ml): −11% | tube Area % Increase (tube formation; 10 μg/ml): −9% | tube Length % Increase (tube formation; 10 μg/ml): −3% | migration % Increase (HEAC endothelial cells; 1 μg/ml, 4 hours): −10.1% | cell migration activity (in words) (HEAC endothelial cells; F2 0.01 to 1 μg/ml, control peptide 1 μg/ml, VEGF 50 ng/ml, FIG. 10): not observed

f1: gene fragment, nucleotide sequence No. 2764-3073 in the frame of SART-2, ligated with expression vector pCDNA3.1
activity in c-fos promoter assay of gene fragments in pCDNA3.1 (c-fos promoter; FIG. 8): no activity

p3743: gene clone (plasmid) from a human heart cDNA library; insert is nucleotide sequence No. 2364-3958 in SART-2
area and length of the formed tubes (tube formation; supernatant of HAEC into which the gene had been introduced, FIG. 6): significantly greater | activation of the VEGF promoter, compared with VEGF (VEGF promoter): higher activation of the VEGF promoter than by VEGF | proliferation activity in human vascular smooth muscle cells after gene introduction [3]: same as that of the negative control, GFP | proliferation ability in HAEC after gene introduction [4]: higher proliferation ability than HGF | ability to activate the c-fos promoter, compared with VEGF (c-fos promoter; FIG. 3 left graph): higher ability to activate the c-fos promoter than VEGF | luciferase activity (activation of c-fos promoter), compared with HGF (c-fos promoter; candidate gene and c-fos-Luci 1:1 by lipofection, bovine vascular endothelial cells, after 24 to 48 hours, FIG. 2): higher luciferase activity than HGF
